# Source: publication PMC9541843, “N‐terminal alterations turn the gut hormone GLP‐2 into an antagonist with gradual loss of GLP‐2 receptor selectivity towards more GLP‐1 receptor interaction” (British Journal of Pharmacology, 2022)
# Read-outs that look alike come from different tables or passages of the source. Peptide text beside a SMILES is read from it. * marks the point of attachment. C16 diacid = O=C(O)CCCCCCCCCCCCCCC(=O)*
# Columns and labels:
# human GLP‐1R = human GLP‐1R (Homo sapiens, UniProt P43220); test: cAMP accumulation, inhibition of GLP‐1‐mediated response (selectivity); conditions: COS-7, read-out: Inhibition of GLP‐1‐mediated cAMP response at the human GLP‐1R
# human GLP‐2R [1] = molecular target: T1, human GLP‐2R (Homo sapiens, UniProt O95838); test: cell-based; conditions: SEM
# T1 sequence (O95838 1-553): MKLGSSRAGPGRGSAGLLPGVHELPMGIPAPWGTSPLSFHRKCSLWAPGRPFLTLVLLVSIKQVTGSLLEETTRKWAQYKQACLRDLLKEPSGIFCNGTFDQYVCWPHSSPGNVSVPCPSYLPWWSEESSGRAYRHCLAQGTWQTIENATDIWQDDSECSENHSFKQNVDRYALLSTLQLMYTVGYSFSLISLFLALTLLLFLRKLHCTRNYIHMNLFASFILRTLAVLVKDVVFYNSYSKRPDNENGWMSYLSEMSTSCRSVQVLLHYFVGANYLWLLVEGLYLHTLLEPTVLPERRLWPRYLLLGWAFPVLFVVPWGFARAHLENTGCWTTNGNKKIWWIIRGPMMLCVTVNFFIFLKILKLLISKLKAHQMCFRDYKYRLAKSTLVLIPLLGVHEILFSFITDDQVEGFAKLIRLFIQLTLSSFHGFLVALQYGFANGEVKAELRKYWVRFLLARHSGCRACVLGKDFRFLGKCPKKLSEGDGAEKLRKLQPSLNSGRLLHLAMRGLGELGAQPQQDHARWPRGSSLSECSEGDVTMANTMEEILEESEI
# human GLP‐2R [2] = molecular target: T1, human GLP‐2R; test: cAMP accumulation, agonism (HitHunter cAMP assay); conditions: for cAMP activation Log EC50 ± SEM / cAMP activation EC50: COS‐7 cells, human GLP‐2R, 30 min at 37°C, n = 3 in duplicate; for cAMP activation Log EC50 ± SEM: mean ± SEM; for Emax: COS-7, read-out: cAMP activation Emax ± SEM
# human GLP‐2R [3] = molecular target: T1, human GLP‐2R; test: cAMP accumulation, inhibition of GLP‐2‐induced activation; conditions: for IC50: SEM; for cAMP inhibition Log IC50 ± SEM / cAMP inhibition IC50: COS‐7 cells, human GLP‐2R, n = 3 in duplicate; for cAMP inhibition Log IC50 ± SEM: 10 min preincubation with antagonist, then GLP‐2 for 20 min, mean ± SEM; for cAMP inhibition IC50: inhibition of GLP‐2‐induced cAMP
# Sequence of human GLP‐1R (P43220 24-463): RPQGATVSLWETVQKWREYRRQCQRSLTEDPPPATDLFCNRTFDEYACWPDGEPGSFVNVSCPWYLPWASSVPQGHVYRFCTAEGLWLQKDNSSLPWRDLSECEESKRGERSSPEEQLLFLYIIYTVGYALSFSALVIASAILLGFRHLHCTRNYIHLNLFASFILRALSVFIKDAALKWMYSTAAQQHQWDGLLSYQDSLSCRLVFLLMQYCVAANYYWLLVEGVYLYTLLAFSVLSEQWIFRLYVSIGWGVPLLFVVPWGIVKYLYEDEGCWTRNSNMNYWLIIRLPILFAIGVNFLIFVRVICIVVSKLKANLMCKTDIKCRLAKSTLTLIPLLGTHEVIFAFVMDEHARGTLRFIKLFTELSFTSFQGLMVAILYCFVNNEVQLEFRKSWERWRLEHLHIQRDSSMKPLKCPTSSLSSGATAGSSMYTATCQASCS
inhibition at 1 µM (human GLP‐1R) [%],IC50 (human GLP‐2R [1]) [µM],cAMP activation Log EC50 ± SEM (human GLP‐2R [2]),cAMP activation EC50 (human GLP‐2R [2]),IC50 (human GLP‐2R [3]) [µM],Emax (human GLP‐2R [2]; SEM) [%],EC50 (human GLP‐2R [2]; SEM) [µM],cAMP inhibition Log IC50 ± SEM (human GLP‐2R [3]),cAMP inhibition IC50 (human GLP‐2R [3]),EC50 (human GLP‐2R [2]) [µM],Structure (SMILES)
72,,,,,,,,,,CC[C@H](C)[C@H](NC(=O)[C@H](Cc1ccccc1)NC(=O)[C@H](CC(=O)O)NC(=O)[C@H](CCCNC(=N)N)NC(=O)[C@H](C)NC(=O)[C@H](C)NC(=O)[C@H](CC(C)C)NC(=O)[C@H](CCCCNC(=O)CCCCCCCCCCCCCCC(=O)O)NC(=O)[C@H](CC(=O)O)NC(=O)[C@H](CC(C)C)NC(=O)[C@@H](NC(=O)[C@@H](NC(=O)[C@H](CC(N)=O)NC(=O)[C@H](CCSC)NC(=O)[C@H](CCC(=O)O)NC(=O)[C@H](CC(=O)O)NC(=O)[C@H](CO)NC(=O)[C@H](Cc1ccccc1)NC(=O)[C@H](CO)NC(=O)CNC(=O)[C@@H](N)CC(=O)O)[C@@H](C)O)[C@@H](C)CC)C(=O)N[C@@H](CC(N)=O)C(=O)N[C@@H](Cc1c[nH]c2ccccc12)C(=O)N[C@@H](CC(C)C)C(=O)N[C@H](C(=O)N[C@@H](CCC(N)=O)C(=O)N[C@H](C(=O)N[C@@H](CCCCN)C(=O)N[C@H](C(=O)N[C@H](C(=O)N[C@@H](CC(=O)O)C(=O)O)[C@@H](C)O)[C@@H](C)CC)[C@@H](C)O)[C@@H](C)CC [GLP‐2(3‐33)[N16K](C16‐diacid/16)] (H-DGSFSDEMNTILDK(C16 diacid)LAARDFINWLIQTKITD-OH)
,0.126,No activation,No activation,0.407,,,,,,CC[C@H](C)[C@H](NC(=O)[C@H](Cc1ccccc1)NC(=O)[C@H](CC(=O)O)NC(=O)[C@H](CCCNC(=N)N)NC(=O)[C@H](C)NC(=O)[C@H](C)NC(=O)[C@H](CC(C)C)NC(=O)[C@H](CC(N)=O)NC(=O)[C@H](CC(=O)O)NC(=O)[C@H](CC(C)C)NC(=O)[C@@H](NC(=O)[C@@H](NC(=O)[C@H](CC(N)=O)NC(=O)[C@@H](N)CCSC)[C@@H](C)O)[C@@H](C)CC)C(=O)N[C@@H](CC(N)=O)C(=O)N[C@@H](Cc1c[nH]c2ccccc12)C(=O)N[C@@H](CC(C)C)C(=O)N[C@H](C(=O)N[C@@H](CCC(N)=O)C(=O)N[C@H](C(=O)N[C@@H](CCCCN)C(=O)N[C@H](C(=O)N[C@H](C(=O)N[C@@H](CC(=O)O)C(=O)O)[C@@H](C)O)[C@@H](C)CC)[C@@H](C)O)[C@@H](C)CC [GLP‐2(10‐33)] (H-MNTILDNLAARDFINWLIQTKITD-OH)
,0.0794,,,,65 ± 3.6,0.2,No inhibition,No inhibition,,CC[C@H](C)[C@H](NC(=O)[C@H](Cc1ccccc1)NC(=O)[C@H](CC(=O)O)NC(=O)[C@H](CCCNC(=N)N)NC(=O)[C@H](C)NC(=O)[C@H](C)NC(=O)[C@H](CC(C)C)NC(=O)[C@H](CC(N)=O)NC(=O)[C@H](CC(=O)O)NC(=O)[C@H](CC(C)C)NC(=O)[C@@H](NC(=O)[C@@H](NC(=O)[C@H](CC(N)=O)NC(=O)[C@H](CCSC)NC(=O)[C@@H](N)CCC(=O)O)[C@@H](C)O)[C@@H](C)CC)C(=O)N[C@@H](CC(N)=O)C(=O)N[C@@H](Cc1c[nH]c2ccccc12)C(=O)N[C@@H](CC(C)C)C(=O)N[C@H](C(=O)N[C@@H](CCC(N)=O)C(=O)N[C@H](C(=O)N[C@@H](CCCCN)C(=O)N[C@H](C(=O)N[C@H](C(=O)N[C@@H](CC(=O)O)C(=O)O)[C@@H](C)O)[C@@H](C)CC)[C@@H](C)O)[C@@H](C)CC [GLP‐2(9‐33)] (H-EMNTILDNLAARDFINWLIQTKITD-OH)
,0.0126,,,0.2,40 ± 4.1,0.0251,,,,CC[C@H](C)[C@H](NC(=O)[C@H](Cc1ccccc1)NC(=O)[C@H](CC(=O)O)NC(=O)[C@H](CCCNC(=N)N)NC(=O)[C@H](C)NC(=O)[C@H](C)NC(=O)[C@H](CC(C)C)NC(=O)[C@H](CC(N)=O)NC(=O)[C@H](CC(=O)O)NC(=O)[C@H](CC(C)C)NC(=O)[C@@H](NC(=O)[C@@H](NC(=O)[C@H](CC(N)=O)NC(=O)[C@H](CCSC)NC(=O)[C@H](CCC(=O)O)NC(=O)[C@H](CC(=O)O)NC(=O)[C@H](CO)NC(=O)[C@H](Cc1ccccc1)NC(=O)[C@@H](N)CO)[C@@H](C)O)[C@@H](C)CC)C(=O)N[C@@H](CC(N)=O)C(=O)N[C@@H](Cc1c[nH]c2ccccc12)C(=O)N[C@@H](CC(C)C)C(=O)N[C@H](C(=O)N[C@@H](CCC(N)=O)C(=O)N[C@H](C(=O)N[C@@H](CCCCN)C(=O)N[C@H](C(=O)N[C@H](C(=O)N[C@@H](CC(=O)O)C(=O)O)[C@@H](C)O)[C@@H](C)CC)[C@@H](C)O)[C@@H](C)CC [GLP‐2(5‐33)] (H-SFSDEMNTILDNLAARDFINWLIQTKITD-OH)
,0.794,No activation,No activation,,,,No inhibition,No inhibition,,CC[C@H](C)[C@H](NC(=O)[C@H](Cc1ccccc1)NC(=O)[C@H](CC(=O)O)NC(=O)[C@H](CCCNC(=N)N)NC(=O)[C@H](C)NC(=O)[C@H](C)NC(=O)[C@H](CC(C)C)NC(=O)[C@H](CC(N)=O)NC(=O)[C@H](CC(=O)O)NC(=O)[C@H](CC(C)C)NC(=O)[C@@H](NC(=O)[C@@H](NC(=O)[C@@H](N)CC(N)=O)[C@@H](C)O)[C@@H](C)CC)C(=O)N[C@@H](CC(N)=O)C(=O)N[C@@H](Cc1c[nH]c2ccccc12)C(=O)N[C@@H](CC(C)C)C(=O)N[C@H](C(=O)N[C@@H](CCC(N)=O)C(=O)N[C@H](C(=O)N[C@@H](CCCCN)C(=O)N[C@H](C(=O)N[C@H](C(=O)N[C@@H](CC(=O)O)C(=O)O)[C@@H](C)O)[C@@H](C)CC)[C@@H](C)O)[C@@H](C)CC [GLP‐2(11‐33)] (H-NTILDNLAARDFINWLIQTKITD-OH)
,0.0794,,,,19 ± 3,0.0631,No inhibition,No inhibition,,CC[C@H](C)[C@H](NC(=O)[C@H](Cc1ccccc1)NC(=O)[C@H](CC(=O)O)NC(=O)[C@H](CCCNC(=N)N)NC(=O)[C@H](C)NC(=O)[C@H](C)NC(=O)[C@H](CC(C)C)NC(=O)[C@H](CC(N)=O)NC(=O)[C@H](CC(=O)O)NC(=O)[C@H](CC(C)C)NC(=O)[C@@H](NC(=O)[C@@H](NC(=O)[C@H](CC(N)=O)NC(=O)[C@H](CCSC)NC(=O)[C@H](CCC(=O)O)NC(=O)[C@@H](N)CC(=O)O)[C@@H](C)O)[C@@H](C)CC)C(=O)N[C@@H](CC(N)=O)C(=O)N[C@@H](Cc1c[nH]c2ccccc12)C(=O)N[C@@H](CC(C)C)C(=O)N[C@H](C(=O)N[C@@H](CCC(N)=O)C(=O)N[C@H](C(=O)N[C@@H](CCCCN)C(=O)N[C@H](C(=O)N[C@H](C(=O)N[C@@H](CC(=O)O)C(=O)O)[C@@H](C)O)[C@@H](C)CC)[C@@H](C)O)[C@@H](C)CC [GLP‐2(8‐33)] (H-DEMNTILDNLAARDFINWLIQTKITD-OH)
,0.02,,,,27 ± 3.8,,No inhibition,No inhibition,0.126,CC[C@H](C)[C@H](NC(=O)[C@H](Cc1ccccc1)NC(=O)[C@H](CC(=O)O)NC(=O)[C@H](CCCNC(=N)N)NC(=O)[C@H](C)NC(=O)[C@H](C)NC(=O)[C@H](CC(C)C)NC(=O)[C@H](CC(N)=O)NC(=O)[C@H](CC(=O)O)NC(=O)[C@H](CC(C)C)NC(=O)[C@@H](NC(=O)[C@@H](NC(=O)[C@H](CC(N)=O)NC(=O)[C@H](CCSC)NC(=O)[C@H](CCC(=O)O)NC(=O)[C@H](CC(=O)O)NC(=O)[C@@H](N)CO)[C@@H](C)O)[C@@H](C)CC)C(=O)N[C@@H](CC(N)=O)C(=O)N[C@@H](Cc1c[nH]c2ccccc12)C(=O)N[C@@H](CC(C)C)C(=O)N[C@H](C(=O)N[C@@H](CCC(N)=O)C(=O)N[C@H](C(=O)N[C@@H](CCCCN)C(=O)N[C@H](C(=O)N[C@H](C(=O)N[C@@H](CC(=O)O)C(=O)O)[C@@H](C)O)[C@@H](C)CC)[C@@H](C)O)[C@@H](C)CC [GLP‐2(7‐33)] (H-SDEMNTILDNLAARDFINWLIQTKITD-OH)
,0.0316,,,0.501,46 ± 5.1,0.0398,,,,CC[C@H](C)[C@H](NC(=O)[C@H](Cc1ccccc1)NC(=O)[C@H](CC(=O)O)NC(=O)[C@H](CCCNC(=N)N)NC(=O)[C@H](C)NC(=O)[C@H](C)NC(=O)[C@H](CC(C)C)NC(=O)[C@H](CC(N)=O)NC(=O)[C@H](CC(=O)O)NC(=O)[C@H](CC(C)C)NC(=O)[C@@H](NC(=O)[C@@H](NC(=O)[C@H](CC(N)=O)NC(=O)[C@H](CCSC)NC(=O)[C@H](CCC(=O)O)NC(=O)[C@H](CC(=O)O)NC(=O)[C@H](CO)NC(=O)[C@@H](N)Cc1ccccc1)[C@@H](C)O)[C@@H](C)CC)C(=O)N[C@@H](CC(N)=O)C(=O)N[C@@H](Cc1c[nH]c2ccccc12)C(=O)N[C@@H](CC(C)C)C(=O)N[C@H](C(=O)N[C@@H](CCC(N)=O)C(=O)N[C@H](C(=O)N[C@@H](CCCCN)C(=O)N[C@H](C(=O)N[C@H](C(=O)N[C@@H](CC(=O)O)C(=O)O)[C@@H](C)O)[C@@H](C)CC)[C@@H](C)O)[C@@H](C)CC [GLP‐2(6‐33)] (H-FSDEMNTILDNLAARDFINWLIQTKITD-OH)
